These results are taken from PMC6934184, “Selective DNA-PKcs inhibition extends the therapeutic index of localized radiotherapy and chemotherapy” (The Journal of Clinical Investigation, 2019).

In this experiment the target is T1, KIT T670I (Homo sapiens, UniProt P10721, T670I).
T1 construct: purchased Thermo Fisher Scientific (Life Technologies) SelectScreen
As to the kind of experiment: SelectScreen Z'LYTE. The format is biochemical. In a few lines:
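SelectScreen broad panel; activity (Z'LYTE, Adapta) plus binding formats. ATP: Km app for CSF1R Z'LYTE; 10 for CAMK1 Adapta. Readout = % per kinase.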

As a reminder, the inhibition is the drop in the measured response relative to a control, in per cent.

Molecules are shown by their SMILES.

T1 sequence (P10721 26-976 T670I): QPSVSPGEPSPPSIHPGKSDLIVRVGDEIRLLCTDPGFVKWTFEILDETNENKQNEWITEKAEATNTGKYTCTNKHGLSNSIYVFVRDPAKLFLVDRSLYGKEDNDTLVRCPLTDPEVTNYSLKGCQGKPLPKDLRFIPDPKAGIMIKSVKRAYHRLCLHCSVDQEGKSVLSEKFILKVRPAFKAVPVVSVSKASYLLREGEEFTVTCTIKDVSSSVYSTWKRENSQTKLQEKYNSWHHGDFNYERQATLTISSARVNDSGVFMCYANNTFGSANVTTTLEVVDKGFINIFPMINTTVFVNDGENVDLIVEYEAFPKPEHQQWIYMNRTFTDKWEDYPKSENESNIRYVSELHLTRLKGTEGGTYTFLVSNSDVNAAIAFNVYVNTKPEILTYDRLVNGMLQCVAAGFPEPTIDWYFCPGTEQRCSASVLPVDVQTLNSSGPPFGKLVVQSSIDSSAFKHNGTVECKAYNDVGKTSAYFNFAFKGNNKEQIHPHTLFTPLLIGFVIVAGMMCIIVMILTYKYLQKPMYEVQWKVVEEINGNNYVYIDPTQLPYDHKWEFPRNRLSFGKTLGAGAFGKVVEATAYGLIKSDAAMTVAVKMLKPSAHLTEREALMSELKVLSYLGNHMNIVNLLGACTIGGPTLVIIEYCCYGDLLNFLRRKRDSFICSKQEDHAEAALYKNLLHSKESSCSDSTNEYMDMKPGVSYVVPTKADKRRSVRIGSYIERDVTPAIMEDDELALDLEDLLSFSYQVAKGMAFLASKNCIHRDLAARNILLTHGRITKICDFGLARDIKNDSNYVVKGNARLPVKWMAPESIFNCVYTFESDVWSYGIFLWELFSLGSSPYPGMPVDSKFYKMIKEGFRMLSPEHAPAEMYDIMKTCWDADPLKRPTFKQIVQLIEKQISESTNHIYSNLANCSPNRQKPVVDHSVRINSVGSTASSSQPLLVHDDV

For the molecule `CN(C(=O)CN1CCOCC1)c1ccc2sc3c(-c4cccc5c(=O)cc(N6CC7CCC(C6)O7)oc45)cccc3c2c1` [NU5455], the inhibition at 1 µM is -24.4%.
